Assay results reported in BindingDB's records for patent US9624198 (Bayer Pharma Aktiengesellschaft, 2017).

Target: T1, Alpha-2C adrenergic receptor (Homo sapiens, UniProt P18825)
T1 sequence (P18825 whole entry): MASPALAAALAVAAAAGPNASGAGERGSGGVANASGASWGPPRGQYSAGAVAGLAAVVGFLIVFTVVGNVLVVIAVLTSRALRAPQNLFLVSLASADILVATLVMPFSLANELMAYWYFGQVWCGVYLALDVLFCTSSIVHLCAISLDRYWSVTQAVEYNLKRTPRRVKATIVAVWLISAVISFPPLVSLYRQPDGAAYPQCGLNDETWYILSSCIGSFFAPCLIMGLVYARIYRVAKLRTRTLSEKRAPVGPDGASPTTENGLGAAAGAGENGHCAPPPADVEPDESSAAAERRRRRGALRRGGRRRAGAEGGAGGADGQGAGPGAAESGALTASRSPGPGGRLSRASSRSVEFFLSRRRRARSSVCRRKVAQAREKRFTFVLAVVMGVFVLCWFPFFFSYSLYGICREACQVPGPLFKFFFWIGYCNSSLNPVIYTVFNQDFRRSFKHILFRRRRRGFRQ
Test: In Vitro Assay
Method: Antagonism against the adrenoreceptor α1A was tested using a recombinant human α1A receptor CHO cell line which additionally also recombinantly expresses mtAeq (mitochondrial aequorin). Antagonism against the adrenoreceptor α2A was tested using a recombinant human α2A-Gα16 receptor fusion protein CHO cell line (PerkinElmer Life Sciences) which additionally also recombinantly expresses mtAeq. Antagonism against the adrenoreceptor α2B was tested using a recombinant human α2B receptor CHO cell line (PerkinElmer Life Sciences) which additionally also recombinantly expresses mtAeq. Antagonism against the adrenoreceptor α2C was tested using a recombinant human α2C receptor CHO cell line which additionally also recombinantly expresses a chimaric G protein (Gαqi3) and mtOb (mitochondrial obelin).The cells were cultivated at 37° C. and 5% CO2 in Dulbecco's modified Eagle's Medium/NUT mix F12 with L-glutamine which additionally contains 10% (v/v) inactivated foetal calf serum, 1 mM sodium pyruvate, 0.9 mM sodium bicarbonate, 50 U/ml penicillin, 50 μg/ml streptomycin, 2.5 μg/ml amphotericin B and 1 mg/ml Geneticin. The cells were passaged with enzyme-free Hank's-based cell dissociation buffer. All cell culture reagents used were from Invitrogen (Carlsbad, USA).

O=C(c1ccc(N2CC3(COC3)C2)nc1)N1CCC(N2CCc3ccccc3C2)CC1 [US9624198, 10]
IC50: 0.011 µM
